Experimental data taken from patent US11771083B2, “Flower thinning composition and flower thinning method using same” (priority 2018, dated 2023).
Where two headings read alike, the source gives them in different places.

Columns and labels:
Fuji apple variety [1] = test: Flower-thinning effect of one alcohol species formulations (Test Example 1); type: in vivo; conditions: for Number of lateral fruits set: 20 days post-spraying; for Lateral flower-thinning rate (%) / Total flower-thinning rate (%): relative to untreated group; for Flower-thinning contribution rate in IAP-108: spray concentration 0.2%, effect × content (0.4 or 0.6)
Fuji apple variety [2] = conditions: in vivo; for Phytotoxicity: Fuji, apple
Procedure: Each of the chemical solutions was sprayed with a DIA (FURUPLA DIA SPRAY 570, Furupla Co., Ltd.) handy spray in both right and left directions in a sufficient amount to run along each flower cluster.
In this test, treatment (spraying) was performed when lateral flowers was in full bloom (Apr. 25, 2014), and phytotoxicity was assessed by visual scoring on day 4 after post-spraying (April 29) and day 11 after post-spraying (May 6). The flower-thinning effect was measured by recording the number of young fruits set without flower thinning on 20 days post-spraying (May 15). The flower thinning activity relative to that of the untreated group was presented as (1−number of young fruits in treated group/number of young fruits in untreated group)×100. This test was designed to have 8 replications with one flower cluster as one replication. Fertilization of the apple flowers was induced by natural fertilization.

honeybees [3] = test: Acute contact toxicity to honeybees, active ingredients in acetone (Test Example 4); type: in vivo; conditions: for Lethality (%): 72 hours after treatment
honeybees [4] = conditions: active ingredient dissolved in acetone
Procedure: In the contact toxicity test for honeybees, healthy honeybees bred in an outdoor beekeeping system were acclimated in a breeding cage, and then anesthetized with CO2. […] This treatment was repeated 3 times for ten honeybees per test cage, and the honeybees were bred at 25° C. under dark conditions for 72 hours. The lethality of each aliphatic alcohol was measured.

peach leaves = conditions: 3-4% decyl alcohol; cited from earlier work
[5] = treatment dose 200 μg per honeybee in acetone

In the case of `CCCCCCCCCCO` [1-Decanol, 1-decanol], the “Number of central fruits set” value (Fuji apple variety [1]; concentration 0.01%) is reported as 6, the “Total number of fruits set” value (Fuji apple variety [1]; concentration 0.01%) is reported as 22 and the “Number of lateral fruits set” value (Fuji apple variety [1]; concentration 0.01%) is reported as 16. For the same compound, the “Lateral flower-thinning rate (%)” value (Fuji apple variety [1]; concentration 0.01%) was 16%, the “Total flower-thinning rate (%)” value (Fuji apple variety [1]; concentration 0.01%) was 12% and the “Number of central fruits set” value (Fuji apple variety [1]; concentration 0.05%) was 5. For the same compound, the “Total number of fruits set” value (Fuji apple variety [1]; concentration 0.05%) was 22, the “Number of lateral fruits set” value (Fuji apple variety [1]; concentration 0.05%) was 17 and the “Lateral flower-thinning rate (%)” value (Fuji apple variety [1]; concentration 0.05%) was 11%. For the same compound, the “Total flower-thinning rate (%)” value (Fuji apple variety [1]; concentration 0.05%) was 12%, the “Number of central fruits set” value (Fuji apple variety [1]; concentration 0.2%) was 5 and the “Total number of fruits set” value (Fuji apple variety [1]; concentration 0.2%) was 15. The “Number of lateral fruits set” value (Fuji apple variety [1]; concentration 0.2%) was 10, the “Lateral flower-thinning rate (%)” value (Fuji apple variety [1]; concentration 0.2%) was 47% and the “Total flower-thinning rate (%)” value (Fuji apple variety [1]; concentration 0.2%) was 40%. For the same compound, the “Flower-thinning contribution rate in IAP-108” value (Fuji apple variety [1]) was 28.2%, the Phytotoxicity (Fuji apple variety [2]) was 0 and the “Phytotoxicity (in words)” value (Fuji apple variety [2]) was “no phytotoxicity”. For the same compound, the “Comparative contact toxicity to honeybees (in words)” value (honeybees [3]; among aliphatic alcohols and versus fatty acids of same carbon number) was “more toxic than 1-decanoic acid”, the “Comparative contact toxicity to honeybees (in words)” value (honeybees [3]; in vivo) was “highest lethality” and the “Lethality (%)” value (honeybees [3]; treatment dose 50 μg per honeybee in acetone) was 70%. For the same compound, the “Lethality (%)” value (honeybees [3]; [5]) was 100%, the “Lethality (%)” value (honeybees [4]; treatment dose 50 μg) was 70% and the “Phytotoxicity to peach leaves” value (peach leaves) was “significant phytotoxicity”.
For `CCCCCCO` [1-Hexanol, 1-hexanol], the “Number of central fruits set” value (Fuji apple variety [1]; concentration 0.2%) was 6, the “Total number of fruits set” value (Fuji apple variety [1]; concentration 0.2%) was 15 and the “Number of lateral fruits set” value (Fuji apple variety [1]; concentration 0.2%) was 9. For the same compound, the “Lateral flower-thinning rate (%)” value (Fuji apple variety [1]; concentration 0.2%) was 53%, the “Total flower-thinning rate (%)” value (Fuji apple variety [1]; concentration 0.2%) was 40% and the “Number of central fruits set” value (Fuji apple variety [1]; concentration 1%) was 5. The “Total number of fruits set” value (Fuji apple variety [1]; concentration 1%) was 10, the “Number of lateral fruits set” value (Fuji apple variety [1]; concentration 1%) was 5 and the “Lateral flower-thinning rate (%)” value (Fuji apple variety [1]; concentration 1%) was 74%. The “Total flower-thinning rate (%)” value (Fuji apple variety [1]; concentration 1%) was 60%, the Phytotoxicity (Fuji apple variety [2]) was 0 and the “Lethality (%)” value (honeybees [3]; [5]) was 6.7%. For the same compound, the “Lethality (%)” value (honeybees [4]; treatment dose 100 μg) was 3.3%.
With `CCCCCCCCO` [1-Octanol, 1-octanol] the “Number of central fruits set” value (Fuji apple variety [1]; concentration 0.2%) was 7, the “Total number of fruits set” value (Fuji apple variety [1]; concentration 0.2%) was 13 and the “Number of lateral fruits set” value (Fuji apple variety [1]; concentration 0.2%) was 6. The “Lateral flower-thinning rate (%)” value (Fuji apple variety [1]; concentration 0.2%) was 68%, the “Total flower-thinning rate (%)” value (Fuji apple variety [1]; concentration 0.2%) was 48% and the “Number of central fruits set” value (Fuji apple variety [1]; concentration 1%) was 3. The “Total number of fruits set” value (Fuji apple variety [1]; concentration 1%) was 4, the “Number of lateral fruits set” value (Fuji apple variety [1]; concentration 1%) was 1 and the “Lateral flower-thinning rate (%)” value (Fuji apple variety [1]; concentration 1%) was 95%. The “Total flower-thinning rate (%)” value (Fuji apple variety [1]; concentration 1%) was 84%, the “Efficacy (in words)” value (Fuji apple variety [1]; concentration of 1% (V/V)) was “sufficient efficacy” and the “Flower-thinning contribution rate in IAP-108” value (Fuji apple variety [1]) was 27.2%. For the same compound, the “Lethality (%)” value (honeybees [3]; [5]) was 50% and the “Lethality (%)” value (honeybees [4]; treatment dose 100 μg) was 50%.
With `CCCCCCCCCC(=O)O` [1-decanoic acid, reference compound] the “Lethality (%)” value (honeybees [3]; [5]) was 90%.
In the case of `CCCCCC(=O)O` [1-hexanoic acid, reference compound], the “Lethality (%)” value (honeybees [3]; [5]) is reported as 30.0%.
In the case of `CCCCCCCC(=O)O` [1-octanoic acid, reference compound], the “Lethality (%)” value (honeybees [3]; [5]) is reported as 60%.
In the case of `CCCCCCCC/C=C\CCCCCCCCO` [Oleyl alcohol, oleyl alcohol], the “Lateral flower-thinning rate (%)” value (Fuji apple variety [1]; concentration 0.1%) is reported as 16% and the “Lethality (%)” value (honeybees [3]; [5]) is reported as 20%.
